Measured values taken from ChEMBL document CHEMBL5543137, “Design and Synthesis of Novel Ultralong-Acting Peptides as EDP-EBP Interaction Inhibitors for Pulmonary Fibrosis Treatment” (J Med Chem, 2024).
Activity calls are given as the source filed them. The rule behind the calls is not given here. Starred links: 1 amine or outer side, 2 acyl side, 3 side chain; linkers in the order of their positions; H or OH if unused. Non-standard residues stand in square brackets, D forms with d. Residues, ends and D or L forms follow the SMILES beside them. *: point of attachment. C20 diacid = O=C(O)CCCCCCCCCCCCCCCCCCC(=O)*; γGlu = O=C(O)[C@H](CCC(=O)[*:2])N[*:1]; Iva = CC[C@](C)(N)C(=O)O; PEG2 = NCCOCCOCCC(=O)O

What was measured:
[1] = Tmax in Sprague-Dawley rat serum at 0.04 mg/kg, sc administered as single dose measured upto 10 days by LC-MS/MS method; type: ADME, organism-based; settings: time < 10 day
A549 = experiment: Antifibrotic activity against TNFalpha-induced human A549 cells assessed as downregulation of vimentin expression level at 10 uM incubated for 24 hrs by Western blotting analysis; type: functional, cell-based
TC-1 [2] = experiment: Inhibition of EBP signaling pathway in TGFalpha induced mouse TC-1 cells assessed as reduction in PI3K phosphorylation at 10 uM incubated for 24 hrs by Western blotting analysis; type: cell-based
TC-1 [3] = experiment: Inhibition of EBP signaling pathway in TGFalpha induced mouse TC-1 cells assessed as reduction in AKT phosphorylation at 10 uM incubated for 24 hrs by Western blotting analysis; type: cell-based
Mus musculus [4] = experiment: Antifibrotic activity against BLM-induced C57BL/6 mouse pulmonary fibrosis model assessed as downregulation of Fn gene expression in lung tissue at 150 ug/kg, sc administered for 2 weeks starting from 7 days post BLM induction and measured after 21 days post BLM induction by RT-qPCR assay; type: functional, organism-based; settings: dose 150.0 µg/kg
Mus musculus [5] = experiment: Antifibrotic activity against BLM-induced C57BL/6 mouse pulmonary fibrosis model assessed as reduction in Col1a2 gene expression at 240 ug/kg/day, sc administered for 2 weeks starting from 7 days post BLM induction and measured after 21 days post BLM induction by ScRNA-sequencing analysis; type: functional, organism-based; settings: dose 240.0 µg/kg/day
Mus musculus [6] = experiment: Antifibrotic activity against BLM-induced C57BL/6 mouse pulmonary fibrosis model assessed as reduction in Cthrc1 gene expression at 240 ug/kg/day, sc administered for 2 weeks starting from 7 days post BLM induction and measured after 21 days post BLM induction by ScRNA-sequencing analysis; type: functional, organism-based; settings: dose 240.0 µg/kg/day
Mus musculus [7] = experiment: Antifibrotic activity against BLM-induced C57BL/6 mouse pulmonary fibrosis model at 240 ug/kg/day, sc administered for 2 weeks starting from 7 days post BLM induction and measured after 21 days post BLM induction in presence of Clo-Lip; type: functional, organism-based; settings: dose 240.0 µg/kg/day

CC[C@](C)(NC(=O)[C@@H](NC(=O)CCOCCOCCNC(=O)CCOCCOCCNC(=O)CC[C@H](NC(=O)CCCCCCCCCCCCCCCCCCC(=O)O)C(=O)O)C(C)C)C(=O)NCC(=O)N[C@@H](CO)C(=O)N1CCC[C@H]1C(=O)N[C@@H](CO)C(=O)N[C@@H](C)C(=O)N[C@@H](CCC(N)=O)C(=O)N[C@@H](CCC(=O)O)C(=O)N[C@@H](CCC(=O)O)C(=O)N[C@@H](C)C(=O)N[C@@H](CO)C(=O)N1CCC[C@H]1C(=O)N[C@@H](C)C(N)=O ({C20 diacid-γGlu-PEG2-PEG2}-V[Iva]GSPSAQEEASPA-NH2)
Tmax [1]: 24 h
Activity (A549): Active
inhibition (TC-1 [2]): Active
inhibition (TC-1 [3]): Active
Activity (Mus musculus [4]): Active
Activity (Mus musculus [5]): Active
Activity (Mus musculus [6]): Active
Activity (Mus musculus [7]): inactive
